Assay results published in patent publication US10723699B2 (Hyundai Pharm Co., Ltd., priority 2015, dated 2020).

Legend:
NCI-H716 cells = assay: Promotion of glucagon-like peptide-1 (GLP-1) secretion (ELISA); format: cell-based, human; settings: 1, 10, 30 μM
Method: To evaluate an effect of the cyclohexene derivative according to the present invention on promotion of glucagon-like peptide-1 (GLP-1) secretion, experiments were carried out, as follows.
NCI-H716 cells that were human enterocytes were plated on 12 wells at 1×10^6 cells per well. After 48 hours, the cells were starved in serum-free media for 2 hours, and treated with a varying concentration of siptagliptin that was a dipeptidyl peptidase-IV (DPP-IV) inhibitor, and the compounds of Comparative Example 1 (1, 10, 30 μM), Comparative Example 5 (10 μM), Example 48 (1, 10, 30 μM), and Example 291 (1, 10, 30 μM). After an hour, supernatants are recovered to determine an amount of the secreted GLP-1 peptide. The GLP-1 measurement was performed using an enzyme-linked immunosorbant assay (ELISA; Millipore, EGLP-35K), and the amount of the secreted GLP-1 peptide was indicated by the unit “pM”.

[1] = tested on: diet-induced obesity (DIO) C57BL/6J mice; assay: OGTT in diet-induced obesity (DIO) mice at the end of 4-week administration; format: in vivo; settings: glucose 4 g/kg 30 minutes later
Method: To simultaneously evaluate both the weight-loss and hypoglycemic effects of the cyclohexene derivative according to the present invention, experiments were carried out, as follows.
Specifically, male C57BL/6J mice (approximately 4 weeks old) in a diet-induced obesity model were fed with a high-fat diet (Lab. Diet Co.) for approximately 12 weeks to induce high-fat diet-induced obesity (DIO). The mice undergoing the high-fat diet were randomly selected, and divided into groups (n=8) for respective administrations.
The weights of the DIO mice were measured twice a week during a period of administration of 4 weeks to record a change in the weights. At the end of the 4-week period of administration, a hypoglycemic effect was evaluated using an oral glucose tolerance test (OGTT), as follows.
Specifically, the compound (+)-(4-(4-((1-(5-ethylpyrimidin-2-yl)piperidin-4-yl)methoxy)phenyl)cyclohex-3-enyl)((R)-2-(hydroxymethyl)pyrrolidin-1-yl)methanone or (−)-(4-(4-((1-(5-ethylpyrimidin-2-yl)piperidin-4-yl)methoxy)phenyl)cyclohex-3-enyl)((R)-2-(hydroxymethyl)pyrrolidin-1-yl)methanone prepared in Example 290 or 291 was orally administered at a dose of 10 to 20 mg/kg. […] A blood glucose level was determined using an Accu-Chek Active Strip (Roche diagnostic Co.). […]

CYP2C9 = target: T1, CYP2C9 (Homo sapiens, UniProt P11712); assay: CYP inhibition assay (BD GENTEST kit); format: in vitro ADME; settings: 10 μM
T1 construct: purchased BD GENTEST 459300
T1 sequence (P11712 whole entry): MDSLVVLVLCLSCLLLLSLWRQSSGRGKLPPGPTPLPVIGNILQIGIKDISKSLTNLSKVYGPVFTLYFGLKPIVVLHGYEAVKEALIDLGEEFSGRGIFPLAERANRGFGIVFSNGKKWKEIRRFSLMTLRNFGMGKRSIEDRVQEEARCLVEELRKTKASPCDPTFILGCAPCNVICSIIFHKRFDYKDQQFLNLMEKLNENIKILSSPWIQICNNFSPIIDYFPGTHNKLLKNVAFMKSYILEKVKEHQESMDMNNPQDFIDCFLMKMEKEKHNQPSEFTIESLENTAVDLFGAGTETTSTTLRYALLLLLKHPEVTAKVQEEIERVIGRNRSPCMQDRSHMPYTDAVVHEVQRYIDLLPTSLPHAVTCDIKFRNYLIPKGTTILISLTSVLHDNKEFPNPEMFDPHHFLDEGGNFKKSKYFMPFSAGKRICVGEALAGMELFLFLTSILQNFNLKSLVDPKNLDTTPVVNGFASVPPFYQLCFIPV
Source text: (§1) CYP enzymes play a major role in the metabolism of drugs. Depending on the inhibition activity of the CYP enzymes, the dose of the drugs and toxicity due to the co-administration of other drugs can be predicted. Therefore, we have measured the inhibitory activity for CYP3A4, CYP2C9, CYP1A2, CYP2D6 and CYP2C19 enzymes present in the body using the compounds of the present invention. Invitrogen P2862 kit was used for CYP2D6 inhibition assay, and BD GENTEST (459100, 459300, 459400, 459500) kits were used for CYP1A2, CYP2C9, CYP2C19 and CYP3A4 inhibition assay. In case of Invitrogen kit, the test materials were diluted in distilled water into 2.5× of the final test concentration.
(§2) In case of BD GENTEST kit, the test materials were diluted in acetonitrile into 50× of the final test concentration. NADPH-cofactor mixture containing cofactor, G6PDH and control protein was prepared in distilled water as per manufacturer's instruction. 4 μl of 50× test materials and 96 μl of NADPH-cofactor mixture were mixed in U-bottom 96-well plate, and the resulting mixture were pre-incubated at 37° C. for 10 minutes. Predetermined concentrations of enzyme/substrate mixture were prepared in distilled water using buffer (0.5M potassium phosphate, pH 7.4) and each of CYP450 enzyme/substrate mixture provided in the kit for the types of CYP450. To the pre-incubated plate, 100 μl of enzyme/substrate mixture was added, and then incubated at 37° C. for 15 minutes (CYP1A2), 30 minutes (CYP3A4 and CYP2C19) or 1.5 hours (CYP2C9). After completion of the reaction, the reactants were transferred to the white plates, and fluorescent values were measured using a micro-plate reader (Excitation and absorption wavelengths of CYP1A2 and CYP2C19 were 410 nm and 460 nm, respectively; and excitation and absorption wavelengths of CYP2C9 and CYP3A4 were 409 nm and 530 nm, respectively).
(§3) The measured values were converted into the inhibition percent of the test materials as compared to the value of the untreated control, and the results were summarized in Table 5.

CYP3A4 = target: T2, CYP3A4 (Homo sapiens, UniProt P08684); assay: CYP inhibition assay (BD GENTEST kit); format: in vitro ADME; settings: 10 μM
T2 construct: purchased BD GENTEST 459500
T2 sequence (P08684 whole entry): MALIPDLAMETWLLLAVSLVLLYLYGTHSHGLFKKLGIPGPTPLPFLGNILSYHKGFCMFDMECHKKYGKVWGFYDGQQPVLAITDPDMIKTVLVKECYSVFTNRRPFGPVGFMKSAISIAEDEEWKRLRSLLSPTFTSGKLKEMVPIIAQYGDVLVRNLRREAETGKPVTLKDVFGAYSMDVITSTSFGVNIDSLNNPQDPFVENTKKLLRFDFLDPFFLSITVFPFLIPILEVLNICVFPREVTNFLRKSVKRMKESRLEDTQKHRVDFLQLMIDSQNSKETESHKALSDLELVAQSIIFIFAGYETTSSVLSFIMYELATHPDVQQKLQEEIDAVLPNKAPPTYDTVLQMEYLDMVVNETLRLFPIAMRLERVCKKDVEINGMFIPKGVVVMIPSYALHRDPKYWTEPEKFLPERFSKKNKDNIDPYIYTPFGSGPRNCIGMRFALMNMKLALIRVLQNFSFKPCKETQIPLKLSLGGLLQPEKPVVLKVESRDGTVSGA
Source text: as §1, §2, §3

CYP1A2 = target: T3, CYP1A2 (Homo sapiens, UniProt P05177); assay: CYP inhibition assay (BD GENTEST kit); format: in vitro ADME; settings: 10 μM
T3 construct: purchased BD GENTEST 459100
T3 sequence (P05177 1-516): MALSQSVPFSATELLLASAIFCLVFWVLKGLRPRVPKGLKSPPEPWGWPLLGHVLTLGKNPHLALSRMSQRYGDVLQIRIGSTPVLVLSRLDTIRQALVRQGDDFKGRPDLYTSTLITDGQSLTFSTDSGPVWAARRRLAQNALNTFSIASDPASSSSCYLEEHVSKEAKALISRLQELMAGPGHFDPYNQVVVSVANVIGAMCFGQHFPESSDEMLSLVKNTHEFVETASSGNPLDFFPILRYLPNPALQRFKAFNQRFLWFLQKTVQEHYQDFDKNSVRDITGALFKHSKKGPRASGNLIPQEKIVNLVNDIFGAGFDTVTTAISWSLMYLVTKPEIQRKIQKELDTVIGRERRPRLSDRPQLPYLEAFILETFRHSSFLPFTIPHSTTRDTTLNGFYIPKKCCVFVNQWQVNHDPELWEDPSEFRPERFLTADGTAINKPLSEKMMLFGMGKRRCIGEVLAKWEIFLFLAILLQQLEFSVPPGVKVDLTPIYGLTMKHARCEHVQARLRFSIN
Source text: as §1, §2, §3

CYP inhibition (% at 10 μM) 2C9 (CYP2C9): 47.32% | CYP inhibition (% at 10 μM) 3A4 (CYP3A4): 36.36% | CYP inhibition (% at 10 μM) 1A2 (CYP1A2): 0%
SMILES: CCc1cnc(N2CCC(COc3ccc(C4=CCC(C(=O)N5CCC[C@@H]5CO)CC4)cc3)CC2)nc1 (single isomer, unassigned; (-)) [Example 291]
GLP-1 secretion relative to the untreated group (NCI-H716 cells): approximately 1.8 times | % AUC (hypoglycemic level) ([1]; 10 mg/kg oral): 16.2 % AUC | % AUC (hypoglycemic level) ([1]; 20 mg/kg oral): 17.6 % AUC
